This is an account of results in US10731187B2, “Recombinant strain producing O-aminobenzoate and fermentative production of aniline from renewable resources via 2-aminobenzoic acid” (Covestro Deutschland AG, priority 2014, dated 2020).

≈ marks a conversion by molar mass, not a printed value.

The solubility is the dissolved amount per volume that the medium holds.

Data set [1] deals with Corynebacterium glutamicum. Nature of the data set: Shake flask growth (OD600) with supplementation of toxic substances. The class given is cell-based, Corynebacterium glutamicum DSM 20300 (=ATCC 13032). The text has this:
(§1) Several strains commonly used industrial biotechnology were investigated regarding their natural tolerance towards oAB and to organic solvents in question for later product extraction (e.g. 1-dodecanol or octanol). Furthermore, the influence of the used pH value was investigated. It was known from previous experiments that at least for E. coli the toxicity of aromatic compounds depends strongly on the pH value, probably because protonated acids can much more efficiently penetrate the cell membrane and accordingly their toxicity rises severely. The extraction of oAB in an organic phase is supposed to work best at low pH values, close to the isoelectric point of oAB. The most relevant host strains considered were: Escherichia coli K12, Corynebacterium glutamicum DSM 20300 (=ATCC 13032), Pseudomonas putida KT2440, Bacillus subtilis subsp. 168, Saccharomyces cerevisiae DSM 70449, and Pichia pastoris X33 (DSM 70382).
To investigate the chosen strains towards the mentioned characteristics shake flasks and small scale fermentation experiments were performed and the organisms were supplemented with the toxic substances (aminobenzoates, solvents) at differed concentrations, different pH values, and the behaviour of the strains was studied.
The organisms (commercially obtained from ordered from the DSMZ, German collection of Microorganisms and cell cultures, Braunschweig) were firstly cultivated in shake flasks and in each of them in suiting, published standard minimal medium in order to characterize their growth under standard cultivation conditions (C. glutamicum: Preculture: BHI medium (37 g/L; Brain-Heart-Infusion; Becton Dickenson and Company, Heidelberg); Main culture pH 7: CGXII-MOPS medium (42 g/L MOPS buffer, 20 g/L (NH4)2SO4, 5 g/L urea (Fisher Scientific, Schwerte), 1 g/L KH2PO4, 1 g/L K2HPO4, 0.25 g/L MgSO4.7H2O (Merck, Darmstadt), 0.01 g/L CaCl2, and 10 g/L glucose (autoclaved separately). The pH was adjusted to 7 with 5 mol/L sodium hydroxide solution. […]

The test system of data set [2] is E. coli. Described as above. The class given is cell-based, Escherichia coli K12. Conditions: already low concentrations.
Text: as §1
To investigate the chosen strains towards the mentioned characteristics shake flasks and small scale fermentation experiments were performed and the organisms were supplemented with the toxic substances (aminobenzoates, solvents) at differed concentrations, different pH values, and the behaviour of the strains was studied. […]

The nature of data set [3]: Solubility of AA in aniline. The class given is physicochemical. From the text:
Aniline is a much better solvent for AA than dodecanol and, being also the product of the decarboxylation, its use presented great advantages compared to 1-dodecanol.

The nature of data set [4]: Solubility of oAB in fermentation broth slurry. Format: physicochemical. Conditions: fermentation broth of Corynebacterium glutamicum; room temperature, pH 4.5, fermentation broth. As to the method: An industrial sugar source was used for fermentation of Corynebacterium glutamicum. 100 ml of the broth with a content of 21.5 g/L glucose, 3.7 g/L lactate was mixed with 10 g anthranilic acid in a 250 ml laboratory reactor. […] Afterwards 9.12 g NaOH (32%) were added in 4 portions until a solution was present. […] Following […] HCl (37%) were added within 1 hour. By dosing of HCl first nucleation took place as from a pH-value of 5.8. The number of crystals increased during dosing. […] Afterwards the slurry was stirred for 1 hour. Finally the slurry was filtered.

`Nc1ccccc1C(=O)O` [oAB, 2-aminobenzoic acid]: the “growth (OD600)” value in data set [1] (3 g/L oAB, pH 7 (MOPS), 100-mL shake flask, 25 h) is on record as “not inhibited”. In addition, in data set [1] (5 g/L, pH 5 and pH 7, shake flask), the growth inhibition result is recorded as “No growth inhibition”. In data set [1] (Corynebacterium glutamicum ATCC13032), the tolerance for o-aminobenzoate result is recorded as “high tolerance”. In data set [2], the toxicity of o-aminobenzoate result is recorded as “toxic”. Also, the “AA that could be dissolved in aniline” value in data set [3] (50° C.) was “up to 40%”; in data set [3] (90° C.) it was “up to 50%”; in data set [3] (room temperature (20° C.)), “up to 30%”. For the same molecule, the solubility in data set [4] was roughly 4.5 mg/mL (≈ 32.8 mM).
